# Results reported in patent EP2444396A1, “PHOTOPROTECTIVE COMPOSITION” (Apoteknos Para La Piel, S.L., priority 2009, dated 2010).
# Marks after values point to notes of the source that are not given here.
# How the values were obtained:
# [1] = test system: Erythema induced by UVB radiation in mouse; test: Photoprotection: erythema induced by UVB radiation in mouse skin; format: in vivo; conditions: intensity of erythema in application area versus surrounding non treated area (subjective criterion); 0.5% gel topical; listed as m-nitrotophine
# [2] = UV spectrum: wavelengths of maximum absorption and absorbance (Cecil 2021 UV-Visible Spectrophotometer); format: physicochemical
# [3] = Absorption spectrum in methanol (195 - 400 nm); format: physicochemical; conditions: peak wavelength, 10 mg/ml
# Protocol: In order to determine the absorption spectrum, a solution of 10 mg/ml of methanol was prepared from each of the substances. The methanol in turn was used to adjust the zero absorbance in each of the wavelengths in the range of 195 - 400 nm.
# [4] = Solubility in organic solvents; format: physicochemical; conditions: methanol, organic solvent or mixture, thermodynamic from solid; MeOH
# [5] = test system: MCF-7 breast cancer cell line; test: E-Screen cell proliferation test; format: cell-based, human; conditions: MCF-7 cells; for Proliferative effect (PE) Mean: 144 hours, negative control = 1
# From the text: The E-Screen proliferation test is based on the use of MCF-7 breast cancer cell line. The MCF-7 cells [which endogenously expressed the estrogen receptor alpha (ERα)], respond to the treatment with estradiol increasing its proliferative rate, synthesizing new proteins and transcribing certain specific genes. […] The test compares the number of cells or the cell proliferation obtained after 6 days of culture. The cells grow in culture medium supplemented with human serum lacking of estrogens, in the presence and/or absence of estradiol as well as of the chemical compounds suspected of having estrogenic activity. The E-Screen test was performed following the methodology previously described by Soto et al. ["An in culture bioassay to assess the estrogenicity of xenobiotics. […] Health Perspect. 103:844-850; 1995]. […] The assay was ended after 144 hours of subculture (exponential phase) after drawing out the medium and fixing the cells for the application of sulforhodamine-B technique. Finally, the cell growth for each experimental group is related to the growth obtained for the negative control (absence of hormone) and with respect to estradiol (positive control). Once the E-Screen test is performed, the maximum cell proliferation rate induced by the compound also known as proliferative effect (PE) was established by calculating the ratio existing between the maximum proliferation rate obtained for the compound and the proliferation rate of the negative control. The proliferation data corresponding with the successive dilutions of the compound were transformed after the application of the correction factor for the dilution of each experimental point, the arithmetic mean of the data obtained being calculated. Another parameter is the relative proliferative efficiency (RPE). […] In this assay, the estrogenicity E-Screen test commonly used to identify the hormonal activity of compounds interacting specifically with the estrogen receptor alpha (ERα), has been used. The assays were performed in triplicate for each concentration (range: 300-0.003 µg/ml) in at least three independent experiments.
# [6] = test system: Erythema induced by UVB radiation in mouse; test: Photoprotection: erythema induced by UVB radiation in mouse skin; format: in vivo; set-up: key to Erythema induced by UVB radiation in mouse: presence (+); absence (-); conditions: 0.5% gel topical, about 2.5 kJ/m^2 UVB, 24 hours after exposure; for % Protection: percentage of protected animals
# From the text: The effect of p-nitrolophine and m-nitrolophine on erythema due to exposing the mouse skin to an irradiation source at maximum in the UVB region has been studied in these assays. The results obtained have been compared with the effect of 4-methylbenzylidene camphor (P5000) a substance considered as a UVB solar filter and with the effect of butyl methoxydibenzoylmethane (P1789) an UVA type filter, both products being commonly used in antisolar cosmetics.
# 35 male mice weighing more than 20 grams have been used. After receiving them, the animals were acclimated for 7 days at the place where the assays were preformed, they were being placed in a cage with controlled temperature (22°C), with relative humidity between 50% and 75%, replacing fresh filtered air approximately 10 times per hour and with 12 h light/dark cycles (7.00 - 19.00 light and from 19.00 to 7.00 dark). For this period and during the experimental period, the animals were fed ad libitum with standard diet for rodents and running water as drink.
# The animals were randomly distributed into 4 experimental groups according to Table 7. The products to be tested were directly used, applying them in the form of a gel on an area of the skin such that each animal form its own control.
# The test was performed following the method described by Winder et al. ["A study of Pharmacological influences on ultraviolet erythema in guinea pigs". Arch. Int Pharmacodyn, 116:261-292; 1958] and by other authors [Wendy et al. "The local antinociceptive and topical antiinflamatory effects of propyl gallate in rodents". Br. J. Pharmacol, 58:573 -581; 1976; Katiyar et al. "Protective Effects of Silymarin Against Photocarcinogenesis in a Mouse Skin Model". J Natl Cancer Inst 89:556-65; 1997] with slight modifications. The day […] the assay, as much hair as possible were removed from the animals by applying a layer of commercial hair-removing cream to remove all the trace of hair and to leave the skin of the back completely bare. The rest of the hair-removing cream were removed by means of washing and rinsing with running water and the animals were the returned to their corresponding cages where they remained until the following day.
# On the day of the assay, the substances to be assayed were blindly applied on the back of the previously labelled animals following a random pattern (randomized). After applying the corresponding treatments, the animals were placed and pinned to the presentation platform of the equipment. The animals were then placed 8 cm from an ultraviolet light source of 4*40w with 313 nm of fundamental emission and a range comprised approximately between 290 and 350 nm and with an anti-UVC filter. The emission spectrum of said light source is depicted in Figure 1.
# The exposure was maintained until all the animals have received an approximate total dose of 2.5 kJ/m^2. The dose of irradiation applied was determined by means of a ultraviolet light detector, the response curve of which is shown in Figure 2.
# Twenty four hours after ending the exposure, the back of the animals was photographed and they were returned to their cages. The evaluation of erythema was performed by means of a positive/negative criterion, the percentage of protected animals being obtained. The statistic significance of the difference was evaluated by means of the non-parametric Fisher Test.
# [7] = Photostability evaluation (irradiation in MeOH, TLC analysis); format: physicochemical; conditions: saturated solution in 200 mL MeOH, 2 hours of irradiation, isolated by column chromatography
# Protocol: All the irradiations preformed in the photostability studies were carried out in an ACE 7840 photoreactor using a 450W power ACE 7825 lamp.
# The solvent used in the photostability test was methanol [MeOH] (ppa) (250 mL), using a concentration of […] of p-nitrolophine. The solution was irradiated for 2 hours, samples being taken at 10 minutes, 20 minutes, 1 hour and 2 hours, and being dried in a rotating evaporator. Each sample was analyzed by thin layer chromatography (TLC in Silica gel) using petroleum ether:ethyl acetate (4:1) as eluent. The chromatography plates were viewed under a 254 nm lamp and a 366 nm lamp, as well as by means of simultaneous viewing under both lamps (254 and 366 nm).
# Specifically, three photoproducts (three blots) could be determined, which were isolated by preparative TLC.
# A saturated solution of m-nitrolophine in MeOH was prepared to perform the study since the solubility in this solvent is low (approximately 0.2 mg/mL). Briefly, an amount of m-nitrolophine sufficient to ensure the saturation in 200 mL of MeOH throughout the night was left stirring. The solution was filtered and irradiated for 2 hours, samples of 10 mL being taken at 10 minutes, 20 minutes, 1 hour and 2 hours, and being dried in rotating evaporator. […]
compound,measurement,setting,value
"O=[N+]([O-])c1cccc(-c2nc(-c3ccccc3)c(-c3ccccc3)[nH]2)c1 [m-nitrolophine, 2-(3-nitrophenyl)-4,5-diphenyl-1H-imidazole]",% Suppression,[1],60 - 80%*
same,UV spectrum A (a.u),[2]; absorbance at the maximum of the same line,1.194 a.u
same,UV spectrum λ (nm),[2]; wavelengths of the maximum absorption,309.0 nm
same,maximum absorption,[3],309 nm
same,solubility,[4],~200 µg/mL
same,estrogenicity,"[5]; E-Screen, conclusion in words",not an estrogenic compound for the receptor alpha
same,Proliferative effect (PE) Mean,[5]; 3x10^-1 mg/ml,1.45
same,Proliferative effect (PE) Mean,[5]; 3x10^-2 mg/ml,1.30
same,Proliferative effect (PE) Mean,[5]; 3x10^-3 mg/ml,1.19
same,Proliferative effect (PE) Mean,[5]; 3x10^-4 mg/ml,1.10
same,Proliferative effect (PE) Mean,[5]; 3x10^-5 mg/ml,1.08
same,Proliferative effect (PE) Mean,[5]; 3x10^-6 mg/ml,1.06
same,proliferative effect,[5]; all the tested concentrations range (300-0.003 µg/ml),lower than 1.5
same,Erythema induced by UVB radiation in mouse,[6]; individual animals No. 1-10,-
same,% Protection,[6],100%
same,% Protection,[6]; listed as m-nitrotophine,100%*
same,photodecomposition product,[7],5.7 mg
